Laboratory results: paper PMC8672067, “Inhibitors of the Bub1 spindle assembly checkpoint kinase: synthesis of BAY-320 and comparison with 2OH-BNPP1” (Royal Society Open Science, 2021)

Molecular target: T1, Bub1 (Homo sapiens, UniProt O43683)
T1 construct: full-length Bub1 with an N-terminal GFP tag (GFP-Bub1), purified from HEK-293 cells on beads
Assay: in vitro kinase assay with purified GFP-Bub1 and H2A, H2ApT120 immunoblot, […] ATP
Type: biochemical

T1 sequence (O43683 whole entry): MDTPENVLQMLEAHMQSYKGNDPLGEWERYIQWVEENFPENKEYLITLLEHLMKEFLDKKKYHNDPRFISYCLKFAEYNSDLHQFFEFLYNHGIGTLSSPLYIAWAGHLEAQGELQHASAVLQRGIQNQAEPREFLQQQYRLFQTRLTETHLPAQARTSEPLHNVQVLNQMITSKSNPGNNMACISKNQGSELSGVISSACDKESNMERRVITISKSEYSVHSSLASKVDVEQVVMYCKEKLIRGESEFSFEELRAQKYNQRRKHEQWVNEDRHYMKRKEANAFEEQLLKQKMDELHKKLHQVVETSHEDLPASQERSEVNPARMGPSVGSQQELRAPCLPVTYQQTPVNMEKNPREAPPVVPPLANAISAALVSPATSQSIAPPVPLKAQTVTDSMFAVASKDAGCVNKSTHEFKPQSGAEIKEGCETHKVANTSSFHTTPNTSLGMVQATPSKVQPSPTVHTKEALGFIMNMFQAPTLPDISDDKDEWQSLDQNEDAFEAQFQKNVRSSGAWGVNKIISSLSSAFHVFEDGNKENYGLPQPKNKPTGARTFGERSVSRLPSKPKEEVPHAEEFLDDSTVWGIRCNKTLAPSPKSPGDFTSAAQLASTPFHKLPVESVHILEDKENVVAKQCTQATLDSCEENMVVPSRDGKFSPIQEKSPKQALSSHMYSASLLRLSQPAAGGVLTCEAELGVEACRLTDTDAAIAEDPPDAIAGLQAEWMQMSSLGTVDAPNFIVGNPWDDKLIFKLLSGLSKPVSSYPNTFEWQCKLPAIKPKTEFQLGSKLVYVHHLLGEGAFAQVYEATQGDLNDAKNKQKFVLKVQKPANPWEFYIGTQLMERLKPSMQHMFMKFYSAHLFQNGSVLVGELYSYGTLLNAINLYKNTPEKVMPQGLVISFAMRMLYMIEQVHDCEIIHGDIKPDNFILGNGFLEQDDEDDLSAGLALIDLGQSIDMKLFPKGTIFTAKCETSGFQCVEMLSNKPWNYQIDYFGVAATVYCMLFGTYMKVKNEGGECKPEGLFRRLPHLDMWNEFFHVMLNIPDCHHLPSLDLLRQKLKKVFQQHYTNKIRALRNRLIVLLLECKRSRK

IC50 [nM] | SMILES
600 | CC(C)(C)n1nc(Cc2ccccc2O)c2c(N)ncnc21 [2OH-BNPP1]
560 | CCOc1cc(F)c(Cn2nc(-c3ncc(OC)c(Nc4ccncc4)n3)c(C)c2C2CC2)c(F)c1 [compound 11, 2-[5-Cyclopropyl-1-(4-ethoxy-2,6-difluorobenzyl)-4-methyl-1H-pyrazol-3-yl]-5-methoxy-N-(pyridine-4-yl)pyrimidin-4-amine]
